Assay results reported in patent publication US8785472B2, “Use of dextromethorphan in treating addictive behavior or bipolar disorder” (National Cheng Kung University, priority 2010, dated 2014).
Entries after “also recorded” stand apart in the source; their conditions may differ.

Key:
[1] = test system: rat primary mixed mesencephalic neuron-glia cultures; conditions: cited from earlier work
[2] = test system: plasma TNF-alpha, CRP, IL-1beta, IL-6, IL-8, BDNF; experiment: Plasma immunological markers (ELISA) in the DM add-on methadone trial; type: in vivo, human; conditions: for plasma TNF-alpha concentration: FIG. 3
Description: • Human Cytokine Array I (Ray Biotech Inc., Norcross, Ga.) consisted of 23 different cytokine and chemokine antibodies spotted in duplicate onto a membrane (Dvorakova et al. 2004). The membranes were blocked with 10% bovine serum albumin in Tris-buffered saline according to the instructions of the manufacturer. One and a half milliliters of conditioned medium was added to each membrane in separate wells of a six-well plate. The membranes were shaken at 110 rpm at room temperature for an hour and a half. All washes were done in new six-well plates, according to the instructions of the manufacturer. Two milliliters of a 1:500 dilution of biotinconjugated antibodies was added to each membrane, and the mixture was incubated on a shaker for an hour and a half at room temperature. Following the wash, the membranes were incubated with a 1:40,000 dilution of strepavidin-conjugated peroxidase for 1 hour at room temperature, according to the instructions of the manufacturer. Following a thorough wash, the membranes were exposed to a peroxidase substrate (ChemGlow West; Alphalnnotech Corp., San Leandro, Calif.) for 5 min in the dark before imaging. Two or six individual membranes were placed side-by-side in a plastic protective folder and sealed. Imaging was done with a UVP AutoChemi imaging system within 30 min of exposure to the substrate. Exposure times ranged from 1 to 10 min. Chemiluminescence was quantified with LabWorks imaging and analysis software. Horseradish peroxidase (HRP)-conjugated antibody served as a positive substrate control at six spots and was also used to identify membrane orientation. For each spot the net density gray level was determined by subtracting the background gray levels from the total raw density gray levels. The relative fold difference in cytokine amount was determined in reference to the amount present on the control culture membrane based on the following: average treated culture cytokine spot gray levels/average control culture cytokine spot gray levels. 2. ELISA • Cytokine was quantified by using the Flexia antibody pair system (Bio-Source Intl., Camarillo, Calif.). Basically, the enzyme-linked immunosorbent assays (ELISAs) were optimized by using 96-well plates (MaxiSorp; Nalge Nunc International Corp., Naperville, Ill.) coated with 100 μl of strepavidin (Sigma, St. Louis, Mo.) at 5 μg/ml in water overnight at 37° C. or until all water was evaporated. All plates were stored desiccated at 4° C. until use. Biotinylated F(ab)2 coating antibody (5 μg/ml) was added to each well, and the plate was incubated at 37° C. for 2 hours. All wells were blocked and washed according to the instructions of the manufacturer. Standards or samples (100 μl) were added to the wells, and the plates were incubated at 37° C. for 1 hour. HRP-conjugated antibody (10 μg/ml) was added for an additional hour at 37° C. The plates were then washed thoroughly according to the instructions of the manufacturer. One hundred microliters of tetramethlybenzidine substrate (Roche, Indianapolis, Ind.) was added to each well, and the plates were held for 30 min in the dark. The reaction was stopped by the addition of 100 μl of 2 NH2SO4 to each well. The absorbance was read on an automated plate reader (Tecan U.S. Inc.) at 450 nm (reference wavelength, 650 nm). Values (in picograms per milliliter) were calculated from a standard curve. Samples were diluted up to 1:20, depending on the concentration.
The immunological parameters, C-reactive protein, TNF-α and interleukins was measured in the blood samples taken at Screen, week 1, week 4, week 8 and at the end of the study.

[3] = test system: subjects with opioid dependence; experiment: Double-blind DM add-on to methadone maintenance therapy, 12 weeks: methadone dose and urine opioid
[4] = test system: methadone-maintained male inpatients; conditions: DM at high doses (120, 240, 480 mg/day in increasing order); cited from earlier work
[5] = test system: plasma TNF-α, IL-1β, IL-8, CRP, BDNF; experiment: Plasma cytokine level (ELISA) in the DM add-on valproate trial; type: in vivo, human
Description: Blood routine, SGOT, SGPT, BUN and creatinine were measured only while the samples were taken at screen and at the end of the study. Plasma cytokine was quantified using the enzyme-linked immunosorbent assays (ELISAs). The Quantikine Human cytokine kit (R&D system), and Molecular Devices (SpectraMax-M2) ELISA reader were used to analyze the plasma cytokine level. The immunological parameters, BDNF, TNF-α, and interleukins were measured in the blood samples. The low limit sensitivity was 0.5 pg/ml, 0.125 pg/ml and 62.5 pg/ml for TNF-α, IL-1β and BDNF respectively. Finally, we used HPLC with UV detector to measure the plasma DM level.
(§1) All of the above, vital sign, and immunological markers were measured at baseline, 1, 2, 4, 8 and 12 weeks. For the 30 subjects of health control were also recruited for comparing the immune markers. The degree of benefit on symptoms after the week 4, 8 and end of treatment due to add-on DM treatment to VPA in comparison with placebo using a main measure of total psychopathology. The safety and tolerability and measure and assess the changes of immunology, and clinical features between the group with add-on DM treatment with placebo from Baseline to the end of study were compared.

[6] = test system: subjects with bipolar I or II disorder; experiment: Double-blind DM add-on to valproate, 12 weeks: YMRS, HDRS, CGI; type: in vivo, human; conditions: for YMRS score: DM 60 mg/day add-on to VPA
Source text: Totally 292 male and female subjects with bipolar I or II disorder, from the Department of Psychiatry at National Cheng Kung University Hospital and National Defense Medical Center were recruited. […] The Institutional Review Board for the Protection of Human Subjects approved the study protocol by both medical centers.
The add-on double-blind study treatment with DM/place was commenced at randomization for 12 weeks while patients continue open-label VPA. Subjects were randomized to either with 60 mg per day of DM or placebo at Baseline and proceeded to double-blind Add-On Treatment. The treatment response and side effect were measured to clarify the curative effect of DM add-on therapy to VPA in the treatment of bipolar disorders. […] Concomitant benzodiazepine medication (preferably up to 8 mg lorazepam) was used for daytime sedation, agitation or insomnia during the study. Risperidone 1-6 mg/daily and fluoxetine 20 mg/daily were permitted during manic or depressive stage, and anticholinergic drug was also used for the extrapyramidal syndrome (EPS).
The Chinese version of the modified SADS-L, a semi-structured interview aimed at formulating the main diagnoses based upon DSM-IV criteria with good inter-rater reliability. This modified version of SADS-L with its diagnoses was used as the gold standard. The severity of current symptoms was assessed by using the YMRS and HDRS. The diagnoses of a mood disorder were made according to DSM-IV criteria, except for bipolar II disorder, where the duration criterion for hypomania of 4 days was left out but 2-day cutoff for hypomania was used instead, because the 4 days minimum duration might not be based on data and the newly adopted cutoff had been supported by several previous reports. The side effect was measured using Clinical Global Impression (CGI) at each visit point.
as §1
For each scale, data were analyzed using last observation carried forward (LOCF) method, in which the last observation was entered for missing visits. To assess the efficacy in various clinical domains and take into account patient effects, mixed-effects models (Lange & Ryan 1989) were used (with intercept as the random effects) for all normally distributed outcomes, with main effects for treatment (DM or placebo), time (0, 1, 2, 4, 8, 12 weeks), and the treatment×time interaction. The analysis of the response rate was intent to treat. All hypothesis tests were 2-sided and were conducted at α=0.05. The post hoc of independent t test was then used to examine which time point the effect of add-on treatment started. P<0.05 was considered statistically significant for all two-sided tests. Statistical analyses were carried out using SPSS for windows (version 15.0).

[7] = test system: LPS and MPTP PD models; conditions: cited from earlier work
[8] = BP subjects, after 12 weeks depakine add-on dextromethorphan vs pretest, FIG. 11
[9] = normal controls vs BP subjects, before and after treatment (data not shown)

## COc1ccc2c(c1)[C@]13CCCC[C@@H]1[C@H](C2)N(C)CC3 [DM, Dextromethorphan]
[1]; DM added up to 60 minutes after the addition of LPS
  neuroprotection with post-treatment: Significant neuroprotection
[1]; pretreated with DM (10 μM) before LPS stimulation
  number of dopamine neurons and dendrite morphology: significantly more numerous and the dendrites less affected
[1]; rat primary mixed mesencephalic neuron-glia cultures
  concentration protecting dopamine neurons against LPS-induced reduction of dopamine uptake: 1 to 10 µM
[2]; between groups throughout 12-week treatment, FIG. 6
  plasma IL-6 concentration: no significant differences
[2]; between groups throughout 12-week treatment, FIG. 7
  plasma IL-8 concentration: no significant differences
[2]; between groups throughout 12-week treatment, FIG. 8
  plasma BDNF concentration: no significant differences
[2]; both high and low plasma DM groups vs placebo
  plasma TNF-alpha concentration: Significantly lower plasma TNF-alpha concentration
[2]; both high and low plasma DM level groups vs placebo, FIG. 5
  plasma IL-1beta concentration: lower plasma IL-1beta concentration
[2]; low plasma DM group compared with high plasma DM group
  plasma TNF-alpha concentration: tendency of more decrease of plasma TNF-alpha concentration
[2]; only in low plasma DM group, FIG. 4
  plasma CRP concentration: lower plasma CRP concentration
[3]; both high (>30 ng/ml) and low (<=30 ng/ml) plasma DM level groups vs placebo, FIG. 2
  percentage morphine-positive urine: lower percentage morphine-positive urine
[3]; low plasma DM level group (<=30 ng/ml) vs high plasma DM group and placebo, 12 weeks add-on to methadone, FIG. 1
  methadone dosage change: highest tendency of decrease of methadone use
[4]
  effects on heart rate, blood pressure, temperature and plasma bromide: mild elevations
[5]; BP patients, after the add-on DM treatment
  plasma IL-1β: decrease
[5]; [8]
  plasma IL-8 level: significant decreasing
  plasma TNF-α level: significant decreasing
[5]; [9]
  plasma BDNF: no difference
  plasma CRP: no difference
[6]; BP I
  HDRS score, DM vs placebo: no differences
  YMRS score, DM vs placebo: no differences
[6]; BP I, Baseline
  YMRS score: 8.08 ± 5.35
[6]; BP I, Week 1
  YMRS score: 8.08 ± 5.35
[6]; BP I, Week 2
  YMRS score: 7.31 ± 5.00
[6]; BP I, Week 4
  YMRS score: 5.86 ± 3.01
[6]; BP I, Week 8
  YMRS score: 6.16 ± 3.61
[6]; BP I, Week 12
  YMRS score: 5.80 ± 4.04
[6]; BP I, p=0.07, FIG. 10
  CGI-therapeutic effect score, DM vs placebo: borderline significance; also recorded: Borderline improvement
[6]; BP II patients, dextromethorphan add-on depakine, after 8 weeks of treatment
  effectiveness in hypomania stage: more effective
[6]; BP II, Baseline
  YMRS score: 5.77 ± 3.25
[6]; BP II, Week 1
  YMRS score: 5.60 ± 2.99
[6]; BP II, Week 2
  YMRS score: 5.88 ± 3.13
[6]; BP II, Week 4
  YMRS score: 5.60 ± 2.90
[6]; BP II, Week 8 (p = 0.01 vs placebo)
  YMRS score: 4.40 ± 2.26
[6]; BP II, Week 12 (p = 0.008 vs placebo)
  YMRS score: 4.26 ± 1.97
[6]; BP II, F=5.68, p=0.02, FIG. 9
  YMRS score, DM vs placebo over time: significant difference of YMRS score
[7]
  protective effect in animal PD models: potent protective effect
